Source: ChEMBL document CHEMBL1156829 (Proc Natl Acad Sci U S A, 2008)

Experiments:
[1] = NOVARTIS: Cytotoxicity against human hepatocellular carcinoma cell line (Huh7); format: toxicity, cell-based, Huh-7; settings: Huh7 cells (hepatocellular carcinoma cell line)
Plasmodium falciparum [2] = assay: NOVARTIS: Inhibition of Plasmodium falciparum 3D7 (drug-susceptible) proliferation in erythrocyte-based infection assay; format: functional, organism-based; settings: Plasmodium falciparum, 3D7
Plasmodium falciparum [3] = assay: NOVARTIS: Inhibition of Plasmodium falciparum W2 (drug-resistant) proliferation in erythrocyte-based infection assay; format: functional, organism-based; settings: Plasmodium falciparum, W2; read-out: EC50

Compound | CC50 [1] [nM] | EC50 (Plasmodium falciparum [2]) [nM] | EC50 (Plasmodium falciparum [3]) [nM]
CCOC(=O)c1ccc(OCC2c3cc(OC)c(OC)cc3CCN2C(=O)Nc2ccc(Cl)cc2)cc1 (configuration not stated) | > 100000 | 1970 | 292
Oc1ccc(C2Nc3ccc4ccccc4c3C3C=CCC32)cc1 (configuration not stated) | > 100000 | 812 | 292
Clc1ccc(C[n+]2cc(-c3ccccc3)n3c2CCC3)cc1Cl | > 55700 | 499 | 158
Oc1ccc(-c2ccccc2)cc1CNCCCN1CCOCC1 | > 10000 | 706 | 28.4
COc1ccc(CNC2CCN(Cc3ccccc3)CC2)cc1OCc1ccccc1 | > 10000 | 1030 | 27.9
CCCn1c(SCC(=O)N2c3ccccc3CC2C)nc2c1c(=O)n(C)c(=O)n2C (configuration not stated) | > 10000 | > 1250 | < 27.1
N=C(NN=Cc1ccc([N+](=O)[O-])cc1)NN=Cc1ccc([N+](=O)[O-])cc1 | > 100000 | 280 | 271
Cc1cc(C)n(CC(O)Cn2c3ccc(I)cc3c3cc(I)ccc32)n1 (configuration not stated) | > 100000 | 1190 | 296
OC(CN1CCN(c2ccnc3cc(Cl)ccc23)CC1)CN1CCN(c2ccnc3cc(Cl)ccc23)CC1 | > 10000 | 85.6 | 29.6
FC(F)(F)c1cccc(NC(=S)N2CCSC2c2ccc(Br)cc2)c1 (configuration not stated) | 43300 | 217 | 116
CCOC(=O)c1ccc(N(C(=O)Cc2c[nH]c3ccccc23)C(C(=O)NC2CCCCC2)c2cccnc2)cc1 (configuration not stated) | > 100000 | 280 | 295
CCOc1cc(-c2nc3c(=O)n(C)c(=O)nc-3n(C)n2)ccc1OC(C)C | > 10000 | 333 | 29.3
Cc1ccc(C2CC(C(F)(F)F)n3ncc(C(=O)Nc4ccc(OC(F)(F)F)cc4)c3N2)cc1 (configuration not stated) | > 100000 | 282 | 293
Oc1c(C(Nc2ccccn2)c2ccc(Br)cc2)ccc2cccnc12 (configuration not stated) | > 100000 | 358 | 284
CC(=O)N(C1=C(N2CCCC2)C(=O)c2ccccc2C1=O)c1ccc(F)cc1 | 25800 | 646 | 75.9
C[n+]1ccn(-c2ccc(C(=O)c3ccc(-n4cc[n+](C)c4)cc3)cc2)c1 | > 10000 | 33.5 | 29.4
CCCc1cc(O)c2c3c(c(=O)oc2c1)CN(C)CC3 | > 100000 | 554 | 294

Compound | CC50 [1] [nM] | EC50 (Plasmodium falciparum [2]) [nM] | EC50 (Plasmodium falciparum [3]) [nM]
Cc1ccc(Cn2c(N3CCC(C(=O)NCc4cccs4)CC3)nc3ccccc32)cc1 | > 100000 | 529 | 271
COc1ccc(C2=C(Nc3ccc(C)c(C)c3)c3ccccc3C2=O)cc1 | > 100000 | 297 | 281
CCc1c(C(C)S(=O)(=O)c2ccc(C)cc2)[nH]c(=O)n1-c1ccc(OC(F)(F)F)cc1 (configuration not stated) | 5750 | 47.8 | 16.2
Cc1ccc(NC(=O)c2c(I)cnn2C)cc1[N+](=O)[O-] | > 100000 | 192 | 280
CCCCCCc1cc(O)c2c3c(c(=O)oc2c1)CCC(C)C3 (configuration not stated) | > 100000 | 364 | 297
CCN(CC)c1nc(NN=Cc2cccc([N+](=O)[O-])c2OC)nc(Nc2ccccc2)n1 | > 100000 | 244 | 294
COc1ccc2c(c1)C=C([C@@H]1C[C@H]3CN(c4ccccc4)C(=O)[C@]34CCCN14)CO2 | > 100000 | 588 | 289
Clc1ccc2c(c1)CN(C1CCCCC1)CO2 | 71000 | 2300 | 200
Cc1ccccc1Cc1c(C)nc2c(C#N)c(C)nn2c1C | > 100000 | 282 | 273
CCOc1cc(C2C(C(=O)OC)=CNC=C2C(=O)OC)cc(Br)c1OCC | > 100000 | 388 | 277
CCOc1cc(C2CC(=O)NC3=C2C(=O)CC(c2ccc(OC)cc2)C3)cc(Cl)c1O (configuration not stated) | > 100000 | 612 | 285
CCOC(=O)C1=C(c2ccccc2)N=c2sc(=Cc3ccccc3O)c(=O)n2C1c1c(OC)ccc2ccccc12 (configuration not stated) | > 100000 | 2320 | 271
COc1ccc(Cl)cc1NC(=O)C1c2ccccc2C(=O)N(CC(C)C)C1c1cccs1 (configuration not stated) | > 100000 | 837 | 272
CC(C)c1cccc(C(C)C)c1NC(=O)N(Cc1ccccc1)C(C)c1nc2ccccc2c(=O)n1-c1ccc(Br)cc1 (configuration not stated) | > 10000 | 1320 | 28
O=C(Nc1cccc(OC(=O)c2ccc([N+](=O)[O-])cc2)c1)c1ccc([N+](=O)[O-])cc1 | > 100000 | > 12500 | 270
Cc1ccccc1Cn1c(=N)n(CC(O)c2ccc(Cl)c(Cl)c2)c2ccccc21 (configuration not stated) | 13300 | 135 | 38.4
CC(=O)N(C1=C(N2CCCC2)C(=O)c2ccccc2C1=O)c1ccccc1C | 11500 | 83.9 | 31.9
